Experimental data taken from the supplement of paper PMC10307832.

Tests used:
Experiment in all cases: relative viability (nuclei count vs DMSO), 5 days (fraction); higher = more cells survive
CAP-232 + Vorinostat = compound: C[C@H]([C@@H](C(=O)N)NC(=O)[C@@H]1CSSC[C@@H](C(=O)N[C@H](C(=O)N[C@@H](C(=O)N[C@H](C(=O)N1)CCCCN)CC2=CNC3=CC=CC=C32)CC4=CC=C(C=C4)O)NC(=O)[C@@H](CC5=CC=CC=C5)N)O [CAP-232] + O=C(CCCCCCC(=O)Nc1ccccc1)NO [Vorinostat] (partner 1 µM)
In short: (§1)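 Medians of duplicate plates are given as relative viability. That measure is the nuclei count in treated wells divided by the count in vehicle wells. Counts were taken on 4× images of lung cancer cell lines in 1536-well plates, 5 days after pin-tool dosing the day after seeding with one drug alone or a fixed anchor-drug dose plus five library-drug doses (not always all listed) in √10 steps.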

CAP-232 + Luminespib = compound: C[C@H]([C@@H](C(=O)N)NC(=O)[C@@H]1CSSC[C@@H](C(=O)N[C@H](C(=O)N[C@@H](C(=O)N[C@H](C(=O)N1)CCCCN)CC2=CNC3=CC=CC=C32)CC4=CC=C(C=C4)O)NC(=O)[C@@H](CC5=CC=CC=C5)N)O [CAP-232] + CCNC(=O)c1noc(-c2cc(C(C)C)c(O)cc2O)c1-c1ccc(CN2CCOCC2)cc1 [Luminespib] (partner 0.01 µM)
In short: as §1

CAP-232 + OSI-027 = compound: C[C@H]([C@@H](C(=O)N)NC(=O)[C@@H]1CSSC[C@@H](C(=O)N[C@H](C(=O)N[C@@H](C(=O)N[C@H](C(=O)N1)CCCCN)CC2=CNC3=CC=CC=C32)CC4=CC=C(C=C4)O)NC(=O)[C@@H](CC5=CC=CC=C5)N)O [CAP-232] + COc1cccc2cc(-c3nc([C@H]4CC[C@H](C(=O)O)CC4)n4ncnc(N)c34)[nH]c12 [OSI-027] (partner 0.5 µM)
In short: as §1

CAP-232 + Trametinib = compound: C[C@H]([C@@H](C(=O)N)NC(=O)[C@@H]1CSSC[C@@H](C(=O)N[C@H](C(=O)N[C@@H](C(=O)N[C@H](C(=O)N1)CCCCN)CC2=CNC3=CC=CC=C32)CC4=CC=C(C=C4)O)NC(=O)[C@@H](CC5=CC=CC=C5)N)O [CAP-232] + CC(=O)Nc1cccc(-n2c(=O)n(C3CC3)c(=O)c3c(Nc4ccc(I)cc4F)n(C)c(=O)c(C)c32)c1 [Trametinib] (partner 0.02 µM)
In short: as §1

CAP-232 + AZD7762 = compound: C[C@H]([C@@H](C(=O)N)NC(=O)[C@@H]1CSSC[C@@H](C(=O)N[C@H](C(=O)N[C@@H](C(=O)N[C@H](C(=O)N1)CCCCN)CC2=CNC3=CC=CC=C32)CC4=CC=C(C=C4)O)NC(=O)[C@@H](CC5=CC=CC=C5)N)O [CAP-232] + NC(=O)Nc1cc(-c2cccc(F)c2)sc1C(=O)N[C@H]1CCCNC1 [AZD7762] (partner 0.2 µM)
In short: as §1

| Cell Line | relative viability (CAP-232 + Vorinostat; first compound 0.4 µM) | relative viability (CAP-232 + Vorinostat; first compound 1.265 µM) | relative viability (CAP-232 + Vorinostat; first compound 4 µM) | relative viability (CAP-232 + Vorinostat; first compound 12.65 µM) | relative viability (CAP-232 + Luminespib; first compound 0.4 µM) | relative viability (CAP-232 + Luminespib; first compound 1.265 µM) | relative viability (CAP-232 + Luminespib; first compound 4 µM) | relative viability (CAP-232 + Luminespib; first compound 12.65 µM) | relative viability (CAP-232 + OSI-027; first compound 0.4 µM) | relative viability (CAP-232 + OSI-027; first compound 1.265 µM) | relative viability (CAP-232 + OSI-027; first compound 4 µM) | relative viability (CAP-232 + OSI-027; first compound 12.65 µM) | relative viability (CAP-232 + Trametinib; first compound 0.4 µM) | relative viability (CAP-232 + Trametinib; first compound 1.265 µM) | relative viability (CAP-232 + Trametinib; first compound 4 µM) | relative viability (CAP-232 + Trametinib; first compound 12.65 µM) | relative viability (CAP-232 + AZD7762; first compound 0.4 µM) | relative viability (CAP-232 + AZD7762; first compound 1.265 µM) | relative viability (CAP-232 + AZD7762; first compound 4 µM) | relative viability (CAP-232 + AZD7762; first compound 12.65 µM) |
| --- | --- | --- | --- | --- | --- | --- | --- | --- | --- | --- | --- | --- | --- | --- | --- | --- | --- | --- | --- | --- |
| HCC-44 | 1.08 | 1.08 | 1.15 | 1.13 | 1.35 | 1.01 | 0.759 | 1 | 0.636 | 0.507 | 0.489 | 0.371 | 0.997 | 1.02 | 1.06 | 1.04 | 0.995 | 1.06 | 1.04 | 0.986 |
| HCC-78 | 0.47 | 0.489 | 0.388 | 0.441 |  |  |  |  | 0.356 | 0.364 | 0.368 | 0.397 | 0.688 | 0.824 | 0.918 | 0.727 | 0.747 | 0.612 | 0.591 | 0.713 |
| HCC-366 | 0.32 | 0.345 | 0.418 | 0.323 |  |  |  |  | 0.986 | 0.875 | 1.22 | 0.82 | 0.365 | 0.419 | 0.327 | 0.349 | 0.399 | 0.328 | 0.308 | 0.374 |
| HCC-827 | 0.888 | 0.832 | 0.883 | 0.891 | 0.629 | 0.66 | 0.659 | 0.749 | 0.896 | 0.786 | 0.831 | 0.637 | 0.469 | 0.543 | 0.491 | 0.549 | 0.19 | 0.204 | 0.174 | 0.182 |
| IA-LM | 0.821 | 1.01 | 0.939 | 0.822 |  |  |  |  |  |  |  |  |  |  |  |  |  |  |  |  |
| NCI-H520 | 0.71 | 0.695 | 0.75 | 0.577 | 0.22 | 0.206 | 0.184 | 0.208 | 0.258 | 0.31 | 0.304 | 0.3 | 0.559 | 0.637 | 0.799 | 0.521 |  |  |  |  |
| NCI-H661 | 0.848 | 0.848 | 0.875 | 0.752 | 0.954 | 0.907 | 0.883 | 0.719 | 0.757 | 0.692 | 0.753 | 0.545 | 0.523 | 0.536 | 0.578 | 0.377 |  |  |  |  |
| NCI-H1563 |  |  |  |  | 0.461 | 0.52 | 0.455 | 0.462 | 0.757 | 0.673 | 0.647 | 0.613 |  |  |  |  |  |  |  |  |
| NCI-H1650 | 0.645 | 0.514 | 0.622 | 0.183 | 0.195 | 0.197 | 0.214 | 0.126 | 0.637 | 0.491 | 0.756 | 0.215 | 0.631 | 0.557 | 0.54 | 0.215 |  |  |  |  |
| NCI-H1703 |  |  |  |  |  |  |  |  |  |  |  |  |  |  |  |  | 0.124 |  | 0.143 | 0.146 |
| NCI-H1792 |  |  |  |  | 0.375 | 0.445 | 0.371 | 0.279 | 0.996 | 0.76 | 0.875 | 0.832 | 0.516 | 0.443 | 0.474 | 0.415 | 0.892 | 0.715 | 0.793 | 0.757 |
| NCI-H2009 | 0.731 | 0.733 | 0.773 | 0.634 | 1.02 | 0.975 | 1 | 0.95 | 0.667 | 0.585 | 0.719 | 0.358 | 0.237 | 0.251 | 0.247 | 0.301 |  |  |  |  |
| NCI-H2023 | 0.599 | 0.426 | 0.645 | 0.251 | 0.917 | 0.725 | 0.69 | 0.232 | 0.429 | 0.359 | 0.447 | 0.124 | 0.656 | 0.555 | 0.48 | 0.205 |  |  |  |  |
| NCI-H2228 | 0.657 | 0.389 | 0.597 | 0.709 | 0.142 | 0.128 | 0.189 | 0.177 | 0.712 | 0.494 | 0.665 | 0.556 | 0.473 | 0.523 | 0.715 | 0.414 |  |  |  |  |
| SK-LU-1 | 0.744 | 0.792 | 0.761 | 0.591 | 0.198 | 0.211 | 0.183 | 0.207 | 0.329 | 0.342 | 0.308 | 0.332 | 0.45 | 0.477 | 0.717 | 0.492 |  |  |  |  |
| SK-MES-1 | 1.3 | 1.13 | 1.02 | 0.489 | 0.726 | 0.889 | 0.888 | 0.531 | 0.696 | 0.557 | 0.583 | 0.264 | 0.543 | 0.549 | 0.541 | 0.524 |  |  |  |  |
| SW 1573 | 0.7 | 0.867 | 0.926 | 0.309 | 0.166 | 0.323 | 0.214 | 0.161 | 0.612 | 0.785 | 0.678 | 0.111 | 0.503 | 0.54 | 0.643 | 0.191 |  |  |  |  |
| UMC-11 | 0.357 | 0.413 | 0.344 | 0.272 | 0.964 | 1.07 | 1.07 | 0.994 | 0.474 | 0.484 | 0.517 | 0.39 | 0.65 | 0.546 | 0.719 | 0.456 |  |  |  |  |
